{
  "source": "patent US20040048827A1",
  "about": "“S-adenosylmethionine and derivatives thereof for the treatment and prevention of alzheimer's disease” (priority 2000, published 2004)",
  "key": {"presenilin-2 (PS2) gene": {"test_system": "presenilin-2 (PS2) gene", "experiment": "RT-PCR expression of presenilin-2 gene in SK-N-SH cells", "assay_type": "cell-based, human", "protocol": "(§1) SK-N-SH human neuroblastoma cell line was cultured, respectively, in HAM F14 (14) medium supplemented with 8-% foetal calf serum (GM), in F14 medium supplemented with 1% foetal calf serum and 10 μM retinopic acid (DM) and in DM, in the presence of 100 μM SAM. The cultures were re-fed every second day with the appropriate medium. The times indicate-are referred-to medium change as O-day.\n(§2) Total RNA extraction was carried out using the acidified phenol procedure. For the expression studies by RT-PCR a reverse transcription was performed with 1 μg of total RNA using 50 pmol of oligo-d(T>)16 with 50 units of M-MuLV reverse transcriptase at 42° C. for one hour, followed by heat inactivation at 94° C. for 5 minutes. […] The subsequent amplification reactions were carried out for 20 to 30 cycles (1′ at 94° C., 1′ at annealing temperature, 1′30″ at 72° C.). The use of β-actin as internal standard allowed to control the processing of equal amount samples.\n(§3) Aliquots of the PCR products (15 μl) were examined by electrophoresis in 1.5% agarose gel. Each gel was scanned by a CCD camera and acquired on a computerised densitometer. The specificity of the fragments was assessed by restriction analysis."}, "presenilin-1 (PS1) gene": {"test_system": "presenilin-1 (PS1) gene", "experiment": "RT-PCR expression of presenilin-1 gene in SK-N-SH cells", "assay_type": "cell-based, human", "protocol": "as §1, §2, §3"}, "[1]": {"test_system": "β-amyloid protein precursor (APP) gene", "experiment": "RT-PCR expression of β-amyloid protein precursor gene in SK-N-SH cells", "assay_type": "cell-based, human", "protocol": "as §1, §2, §3"}, "presenilin-1 protein": {"test_system": "presenilin-1 protein", "experiment": "Western blot of presenilin-1 protein in SK-N-SH cells", "assay_type": "cell-based, human", "conditions": "DM with 100 μM SAM, 120 hours (5 days) of culture", "protocol": "as §1\n(§4) Detergent lysates were prepared from SK-N-SH cells in the presence of protease inhibitors (leupeptin, pepstatin, PMSF, 5 μg/ml each); protein extracts were performed after 5 days of culture in either GM or DM or DM supplemented with 100 μM SAM.\n(§5) 10 μg of each protein extract were run on 8% PAGE for APP analysis and on 12% PAGE for PS1 analysis, and then blotted on nitrocellulose. APP was detected by a monoclonal antibody 22C11 (Boerhinger Mannheim) recognising three major bands at 116, 110, 106 KD. PS1 was detected by a monoclonal antibody (MAB1563 Chemicon) recognising a 31 KD band."}, "β-secretase gene": {"test_system": "β-secretase gene", "experiment": "RT-PCR expression of β-secretase gene in SK-N-SH cells", "assay_type": "cell-based, human", "protocol": "as §1, §2, §3"}, "APP": {"test_system": "APP", "experiment": "Western blot of APP in SK-N-SH cells", "assay_type": "cell-based, human", "conditions": "GM, DM, DM with 100 μM SAM, 120 hours of culture", "protocol": "as §1, §4, §5"}, "[2]": {"test_system": "SK-N-SH human neuroblastoma cells", "experiment": "HPLC assay of S-adenosylmethionine passage into the cells", "assay_type": "in vitro ADME", "protocol": "as §1\nCell cultures were rinsed twice with phosphate buffered saline and frozen at −80° C. After thawing cells were scraped into 1 ml of deionized water and sonified for 15 seconds in ice. The macromolecules were precipitated from 1.5 M PCA at 4° C. for 1 hour adjusting the pH at 4-5 with KOH and then centrifuged for 15 minutes at 9000×g. The supernatants were freeze-dried. The HPLC measurements were carried out using a Varian HPLC System. The samples were dissolved in water and injected onto reverse-phase column (C-18) using a water-acetonitrile mobile-phase."}, "Adam 17 gene": {"test_system": "Adam 17 gene", "experiment": "RT-PCR expression of Adam 17 (α-secretase) gene in SK-N-SH cells", "assay_type": "cell-based, human", "conditions": "SAM in DM, 48 and 96 hours of culture", "protocol": "as §1, §2, §3"}, "Notch1 gene": {"test_system": "Notch1 gene", "experiment": "RT-PCR expression of Notch1 gene in SK-N-SH cells", "assay_type": "cell-based, human", "conditions": "SAM in DM, 48 and 96 hours of culture", "protocol": "as §1, §2, §3"}, "Adam 10 gene": {"test_system": "Adam 10 gene", "experiment": "RT-PCR expression of Adam 10 (α-secretase) gene in SK-N-SH cells", "assay_type": "cell-based, human", "conditions": "SAM in DM, 48 and 96 hours of culture (signal apparent only at 48 hours)", "protocol": "as §1, §2, §3"}, "1-40 β-amyloid peptide": {"test_system": "1-40 β-amyloid peptide", "experiment": "ELISA of 1-40 β-amyloid peptide production in SK-N-SH cell culture supernatants", "assay_type": "cell-based, human", "conditions": "SAM in DM vs DM, supernatants after 96 and 120 hours, normalised to cell protein", "protocol": "as §1\nCell culture supernatants were collected and frozen after 96 and 120 hours from the beginning of the culture. Successively they were concentrated using Amicon micro-concentrators according to the manufacturer instructions. 100 μl of concentrated medium were used to perform the immunoassay employing, according to the manufacturer instructions, the Biosource International kit for the detection of 1-40 amyloid. The amount of β-amyloid was normalised to the concentration of the proteins extracted from the corresponding cell lysates."}, "[3]": {"conditions": "SK-N-SH cells, administration into the cell culture, RT-PCR"}, "[4]": {"conditions": "DM with 100 μM SAM, 96 hours, compared to 96 hours without SAM"}},
  "note": "Entries after “also recorded” stand apart in the source; their conditions may differ.",
  "data": [
    {"compound": "S-adenosylmethionine disulfonate", "values": [
      {"measurement": "presenilin-2 gene expression", "setting": "presenilin-2 (PS2) gene; [3]", "result": "block of the expression increase"},
      {"measurement": "presenilin-1 gene expression", "setting": "presenilin-1 (PS1) gene; [3]", "result": "remarkable repression"},
      {"measurement": "β-amyloid protein precursor gene expression", "setting": "[1]; [3]", "result": "block of the expression increase"},
      {"measurement": "presenilin-1 protein synthesis (Western blot)", "setting": "presenilin-1 protein", "result": "dramatic decrease"},
      {"measurement": "β-secretase gene expression", "setting": "β-secretase gene; [3]", "result": "block of the expression increase"}
    ]},
    {"compound": "C[S+](CC[C@H](N)C(=O)O)C[C@H]1O[C@@H](n2cnc3c(N)ncnc32)[C@H](O)[C@@H]1O", "note": "(stereo partly drawn) [SAM, S-adenosylmethionine]", "values": [
      {"measurement": "PS2 gene expression at 48 hours", "setting": "presenilin-2 (PS2) gene; DM with 100 μM SAM, 48 hours", "result": "accelerate the gene expression"},
      {"measurement": "PS2 gene expression at 96 hours", "setting": "presenilin-2 (PS2) gene; [4]", "result": "did not increase and resulted inhibited"},
      {"measurement": "PS1 gene expression at 48 hours", "setting": "presenilin-1 (PS1) gene; DM with 100 μM SAM, 48 hours", "result": "accelerate the gene expression"},
      {"measurement": "PS1 gene expression at 96 hours", "setting": "presenilin-1 (PS1) gene; [4]", "result": "markedly down-regulated"},
      {"measurement": "APP isoforms level (Western blot)", "setting": "APP", "result": "did not change"},
      {"measurement": "APP gene expression at 48 hours", "setting": "[1]; DM with 100 μM SAM, 48 hours", "result": "accelerate the gene expression"},
      {"measurement": "APP gene expression at 96 hours", "setting": "[1]; [4]", "result": "did not increase and resulted inhibited"},
      {"measurement": "SAM in treated cell lysate relative to endogenous SAM", "setting": "[2]", "result": 6, "unit": "fold"},
      {"measurement": "presenilin-1 protein synthesis (Western blot)", "setting": "presenilin-1 protein", "result": "marked reduction"},
      {"measurement": "Adam 17 gene expression", "setting": "Adam 17 gene", "result": "over-expression"},
      {"measurement": "Adam 17 gene expression", "setting": "Adam 17 gene; listed as S-adenosylmethionine", "result": "increased"},
      {"measurement": "Notch1 gene expression", "setting": "Notch1 gene", "result": "comparable to that observed in GM at 48 hours; also recorded: does not modify"},
      {"measurement": "Notch1 gene expression", "setting": "Notch1 gene; listed as S-adenosylmethionine", "result": "increased"},
      {"measurement": "β-secretase gene expression at 48 hours", "setting": "β-secretase gene; DM with 100 μM SAM, 48 hours", "result": "accelerate the gene expression"},
      {"measurement": "β-secretase gene expression at 96 hours", "setting": "β-secretase gene; [4]", "result": "did not increase and resulted inhibited"},
      {"measurement": "Adam 10 gene expression", "setting": "Adam 10 gene", "result": "the same as that detectable in DM"},
      {"measurement": "Adam 10 gene expression", "setting": "Adam 10 gene; listed as S-adenosylmethionine", "result": "increased"},
      {"measurement": "1-40 β-amyloid peptide production", "setting": "1-40 β-amyloid peptide", "result": "reduces the same remarkably"},
      {"measurement": "1-40 β-amyloid peptide production", "setting": "1-40 β-amyloid peptide; listed as S-adenosylmethionine", "result": "reduced"}
    ]}
  ]
}
